Patent EP3057951B1, “METHYLENE LINKED QUINOLINYL MODULATORS OF ROR-GAMMA-T” (Janssen Pharmaceutica NV, priority 2013, dated 2015)
Several values for one entry are separate records, joined by “and”; a condition that tells them apart may be missing. Identical values can stand only once. Like-named read-outs stand apart in the source and are kept apart here.

What was measured:
[1] = target: T1, wild type human RORγt ligand binding domain (RORyt LBD) (Homo sapiens, UniProt P51449); test: RORγt ThermoFluor assay (thermal shift, binding affinity KD)
T1 construct: His-tag (N); TurboTEV protease cleavage site (ENLYFQG) (N); made in house; host or cells: E. coli (pHIS1, modified pET vector)
T1 sequence (P51449 258-518): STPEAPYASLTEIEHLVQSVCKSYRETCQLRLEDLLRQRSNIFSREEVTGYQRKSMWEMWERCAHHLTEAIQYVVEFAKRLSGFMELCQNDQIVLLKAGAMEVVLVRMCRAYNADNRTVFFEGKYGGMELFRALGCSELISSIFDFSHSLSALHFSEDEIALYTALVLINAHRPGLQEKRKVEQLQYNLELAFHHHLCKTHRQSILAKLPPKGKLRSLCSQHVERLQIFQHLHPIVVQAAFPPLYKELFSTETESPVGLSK

[2] = target: T2, wild type human RORγt LBD (Homo sapiens, UniProt P51449); test: RORγt (LBD) Reporter Assay (GAL4-luciferase, HEK293T cells); format: cell-based; settings: for inhibition at 6 µM: HEK-293T, read-out: RORγt (LBD) Reporter Assay, % inhibition @ 6 µM, 6 µM compound concentration; for RORγt (LBD) Reporter Assay, % inhibition @ 6 µM: 6 µM compound concentration
T2 construct: expressed in transfected cells; host or cells: HEK293T
T2 sequence (P51449 258-518): T1 sequence (P51449 258-518)

[3] = HEK293T cells, value after the comma with ∼, > or < could not be included in the average

Row | Compound | Kd [1] | IC50 ([2]; HEK293T cells) | inhibition at 6 µM ([2]; HEK293T cells) | IC50 [2, 3] | inhibition at 6 µM [2] | RORγt (LBD) Reporter Assay, % inhibition @ 6 µM ([2]; HEK293T cells)
1 | Cc1cc(C(O)(c2ccc(Cl)cc2)c2cncn2C)cc2c(Cl)c(Cc3ccc(-n4cccn4)cc3)c(N3CCC3)nc12 (single isomer, unassigned) [Example 136b, {2-Azetidin-1-yl-4-chloro-8-methyl-3-[4-(1H-pyrazol-1-yl)benzyl]quinolin-6-yl}(4-chlorophenyl)(1-methyl-1H-imidazol-5-yl)methanol] | 2300 nM | 1000 nM | 83% |  |  | 
2 | Cc1nc2ccc(C(O)(c3ccc(C(F)(F)F)nc3)c3cncn3C)cc2c(Cl)c1Cc1ccc(C(F)(F)F)cc1 (stereo not drawn) [Example 26a, (4-Chloro-2-methyl-3-(4-(trifluoromethyl)benzyl)quinolin-6-yl)(1-methyl-1H-imidazol-5-yl)(6-(trifluoromethyl)pyridin-3-yl)methanol] | 3.1 nM |  |  | 33 nM | 101% | 
3 | Cn1cncc1C(O)(c1ccc(C(F)(F)F)nc1)c1ccc2nc(N3CCOCC3)c(Cc3ccc(-n4cccn4)cc3)c(Cl)c2c1 (single isomer, unassigned) [Example 146c, {4-Chloro-2-morpholin-4-yl-3-[4-(1H-pyrazol-1-yl)benzyl]quinolin-6-yl}(1-methyl-1H-imidazol-5-yl)[6-(trifluoromethyl)pyridin-3-yl]methanol] | 600 nM | ~2000 nM |  |  |  | 92%
4 | Cn1cncc1C(O)(c1ccc(C(F)(F)F)nc1)c1ccc2nc(N3CC(F)C3)c(Cc3ccc(-n4cccn4)cc3)c(Cl)c2c1 (single isomer, unassigned) [Example 147b, {4-Chloro-2-(3-fluoroazetidin-1-yl)-3-[4-(1H-pyrazol-1-yl)benzyl]quinolin-6-yl}(1-methyl-1H-imidazol-5-yl)[6-(trifluoromethyl)pyridin-3-yl]methanol] | 60 nM | 210 nM | 99% |  |  | 
5 | COc1nc2ccc(C(O)(c3ccc(C#N)cc3)c3cncn3C)cc2c(Cl)c1Cc1ccc(C(F)(F)F)nc1 (single isomer, unassigned) [Example 38b, 4-((4-Chloro-2-methoxy-3-((6-(trifluoromethyl)pyridin-3-yl)methyl)quinolin-6-yl)(hydroxy)(1-methyl-1H-imidazol-5-yl)methyl)benzonitrile] | 150 nM |  |  | 250 nM | 94% | 
6 | COc1nc2ccc(C(O)(c3ccc(Cl)cc3)c3cccnc3)cc2c(Cl)c1Cc1ccc(-n2cccn2)cc1 (stereo not drawn) [Example 62, (3-(4-(1H-pyrazol-1-yl)benzyl)4-chloro-2-methoxyquinolin-6-yl)(4-chlorophenyl)(pyridin-3-yl)methanol] | 41 nM |  |  | 120 nM | 107% | 
7 | COc1nc2ccc(C(O)(c3cncn3C)c3cncn3C)cc2c(Cl)c1Cc1ccc(C(F)(F)F)cc1 [Example 149, (4-Chloro-2-methoxy-3-(4-(trifluoromethyl)benzyl)quinolin-6-yl)bis(1-methyl-1H-imidazol-5-yl)methanol] | 0.34 nM | 2.4 nM | 96% |  |  | 
8 | COc1nc2ccc(C(O)(c3ccccc3)C3CCN(C(C)=O)CC3)cc2c(Cl)c1Cc1ccc(-n2cncn2)cc1 (single isomer, unassigned) [Example 18b, 1-(4-((3-(4-(1H-1,2,4-Triazol-1-yl)benzyl)-4-chloro-2-methoxyquinolin-6-yl)(hydroxy)(phenyl)methyl)piperidin-1-yl)ethanone] | 8 nM |  |  | 83 nM | 99% | 
9 | CC(=O)N1CCC(C(O)(c2ccccc2)c2ccc3nc(Cl)c(Cc4cncnc4)c(OC(F)F)c3c2)CC1 (racemic) [Example 73a, 1-(4-((2-Chloro-4-(difluoromethoxy)-3-(pyrimidin-5-ylmethyl)quinolin-6-yl)(hydroxy)(phenyl)methyl)piperidin-1-yl)ethanone] | 590 nM |  |  | > 6000 nM | 45% | 
10 | COc1nc2ccc(C(O)(c3ccc(F)cc3)c3cncn3C)cc2c(Cl)c1Cc1ccc(-n2cccn2)cc1 (single isomer, unassigned) [Example 160b, (3-(4-(1H-Pyrazol-1-yl)benzyl)-4-chloro-2-methoxyquinolin-6-yl)(4-fluorophenyl)(1-methyl-1H-imidazol-5-yl)methanol] | 460 nM | 680 nM | 105% |  |  | 
11 | COc1nc2ccc(C(O)(c3cccnc3)c3ccc(Cl)c(Cl)c3)cc2c(Cl)c1Cc1ccc(-n2cccn2)cc1 (single isomer, unassigned) [Example 161b, (3-(4-(1H-Pyrazol-1-yl)benzyl)-4-chloro-2-methoxyquinolin-6-yl)(3,4-dichlorophenyl)(pyridin-3-yl)methanol] | 280 nM | 160 nM | 108% |  |  | 
12 | COc1nc2ccc(C(O)(c3ccc(C)nc3C)c3cnnn3C)cc2c(Cl)c1Cc1ccc(N(C)C)cc1 (stereo not drawn) [Example 24a, (4-Chloro-3-(4-(dimethylamino)benzyl)-2-methoxyquinolin-6-yl)(2,6-dimethylpyridin-3-yl)(1-methyl-1H-1,2,3-triazol-5-yl)methanol] | 1.5 nM |  |  | 4.6 nM | 100% | 
13 | CC(=O)N1CCC(C(O)(c2ccccc2)c2ccc3nc(C)c(Cc4ccc(C(F)(F)F)cc4)c(Cl)c3c2)CC1 (stereo not drawn) [Example 27a, 1-(4-((4-Chloro-2-methyl-3-(4-(trifluoromethyl)benzyl)quinolin-6-yl)(hydroxy)(phenyl)methyl)piperidin-1-yl)ethanone] | 1.4 nM |  |  | 4.4 nM | 101% | 
14 | Cn1cncc1C(O)(c1ccc(C(F)(F)F)nc1)c1ccc2nc(N3CC(F)C3)c(Cc3ccc(-n4cccn4)cc3)c(Cl)c2c1 (single isomer, unassigned) [Example 147c, {4-Chloro-2-(3-fluoroazetidin-1-yl)-3-[4-(1H-pyrazol-1-yl)benzyl]quinolin-6-yl}(1-methyl-1H-imidazol-5-yl)[6-(trifluoromethyl)pyridin-3-yl]methanol] | 5.2 nM | 52 nM |  |  |  | 96%
15 | CCc1nc2ccc(C(O)(c3cnnn3C)c3cnc(C)n3C)cc2c(Cl)c1Cc1ccc(C(F)(F)F)cc1 (single isomer, unassigned) [Example 25b, (4-Chloro-2-ethyl-3-(4-(trifluoromethyl)benzyl)quinolin-6-yl)(1,2-dimethyl-1H-imidazol-5-yl)(1-methyl-1H-1,2,3-triazol-5-yl)methanol] | 0.01 nM |  |  | 1.9 nM and < 3 nM | 100% | 
16 | Cn1cncc1C(O)(c1ccc(C(F)(F)F)nc1)c1ccc2nc(N3CC(F)(F)C3)c(Cc3ccc(-n4cccn4)cc3)c(Cl)c2c1 (single isomer, unassigned) [Example 135b, {4-Chloro-2-(3,3-difluoroazetidin-1-yl)-3-[4-(1H-pyrazol-1-yl)benzyl]quinolin-6-yl}(1-methyl-1H-imidazol-5-yl)[6-(trifluoromethyl)pyridin-3-yl]methanol] | 160 nM | 260 nM | 99% |  |  | 
17 | COc1nc2ccc(C(O)(c3ccc(C)nc3C)c3cnnn3C)cc2c(C#N)c1Cc1ccc(C(F)(F)F)nc1 (single isomer, unassigned) [Example 41b, 6-((2,6-Dimethylpyridin-3-yl)(hydroxy)(1-methyl-1H-1,2,3-triazol-5-yl)methyl)-2-methoxy-3-((6-(trifluoromethyl)pyridin-3-yl)methyl)quinoline-4-carbonitrile] | 1200 nM |  |  | 1600 nM | 92% | 
18 | CC(=O)N1CCC(C(O)(c2ccc(F)cc2)c2ccc3nc(OC(F)F)c(Cc4cncnc4)c(OC(F)F)c3c2)CC1 (stereo not drawn) [Example 72, 1-(4-((2,4-bis(Difluoromethoxy)-3-(pyrimidin-5-ylmethyl)quinolin-6-yl)(4-fluorophenyl)(hydroxy)methyl)piperidin-1-yl)ethanone] | 1100 nM |  |  | 1200 nM | 53% | 
19 | Cc1cc(C(O)(c2ccc(Cl)cc2)c2cncn2C)cc2c(Cl)c(Cc3ccc(-n4cccn4)cc3)c(N3CCC3)nc12 (stereo not drawn) [Example 136a] | 150 nM | 140 nM | 94% |  |  | 
20 | Cc1cc(C(O)(c2ccc(C(F)(F)F)nc2)c2cncn2C)cc2c(Cl)c(Cc3ccc(-n4cccn4)cc3)c(N3CCC3)nc12 (single isomer, unassigned) [Example 137b, {2-Azetidin-1-yl-4-chloro-8-methyl-3-[4-(1H-pyrazol-1-yl)benzyl]quinolin-6-yl}(1-methyl-1H-imidazol-5-yl)[6-(trifluoromethyl)pyridin-3-yl]methanol] | 41 nM | 160 nM | 93% |  |  | 
21 | Cn1cncc1C(O)(c1ccc(C(F)(F)F)nc1)c1ccc2nc(N3CCCC3)c(Cc3ccc(-n4cccn4)cc3)c(Cl)c2c1 (single isomer, unassigned) [Example 145c, {4-Chloro-3-[4-(1H-pyrazol-1-yl)benzyl]-2-pyrrolidin-1-ylquinolin-6-yl}(1-methyl-1H-imidazol-5-yl)[6-(trifluoromethyl)pyridin-3-yl]methanol] | 810 nM | 780 nM |  |  |  | 95%
22 | COc1nc2ccc(C(O)(c3ccc(F)cc3)c3cncn3C)cc2c(Cl)c1Cc1ccc(-n2cccn2)cc1 (stereo not drawn) [Example 160a, (3-(4-(1H-Pyrazol-1-yl)benzyl)-4-chloro-2-methoxyquinolin-6-yl)(4-fluorophenyl)(1-methyl-1H-imidazol-5-yl)methanol] | 49 nM | 59 nM | 112% |  |  | 
